Results on 23 compounds are retold here after US7521560B2, “2-substituted quinoline compounds and their uses” (Rigel Pharmaceuticals, Inc., priority 2004, dated 2009).

For test [1], the system named is cultured human mast cells (CHMC). The test is described as follows: CHMC low cell density IgE activation: tryptase release assay. It counts as cell-based. The settings on record: for IC50: Homo sapiens, Mast cell, anti-IgE-induced tryptase release, low density CHMC; for activity in "prodrug" form: referring to TABLE 1. On the procedure: Inhibition of degranulation was measured at low density (and could also be measures at high cell density) by quantifying the release of the granule specific factor tryptase. Tryptase was quantified using a fluorogenic substrates as described in its respective examples. Histamine, TNFα, IL-6, IL-13 and LTC4 can be quantified, if desired, using the following commercial ELISA kits: histamine (Immunotech #2015, Beckman Coulter), TNFα (Biosource #KHC3011), IL-6 (Biosource #KMC0061), IL-13 (Biosource #KHC0132) and LTC4 (Cayman Chemical #520211). The protocols for various assays are provided below.
A second phase is performed to convert the expanded CD34-negative progenitor cells into differentiated mucosal mast cells. These mucosal cultured human mast cells (“CHMC”) are derived from CD34+ cells isolated from umbilical cord blood and treated to form a proliferated population of CD34-negative progenitor cells, as described above. To produce the CD34-negative progenitor cells, the resuspension cycle for the culture was the same as that described above, except that the culture was seeded at a density of 425,000 cells/mL and 15% additional media was added on about day four or five without performing a cell count. Also, the cytokine composition of the medium was modified such that it contained SCF (200 ng/mL) and recombinant human IL-6 (200 ng/mL; Peprotech, Catalog No. 200-06 reconstituted to 100 ug/mL in sterile 10 mM acetic acid) (“CM/SCF/IL-6 medium”).
To duplicate 96-well U-bottom plates (Costar 3799) add 65 ul of compound dilutions or control samples that have been prepared in MT [137 mM NaCl, 2.7 mM KCl, 1.8 mM CaCl2, 1.0 mM MgCl2, 5.6 mM Glucose, 20 mM Hepes (pH 7.4), 0.1% Bovine Serum Albumin, (Sigma A4503)] containing 2% MeOH and 1% DMSO. Pellet CHMC cells (980 rpm, 10 min) and resuspend in pre-warmed MT. Add 65 ul of cells to each 96-well plate. Depending on the degranulation activity for each particular CHMC donor, load 1000-1500 cells/well. Mix four times followed by a 1 hr incubation at 37° C. During the 1 hr incubation, prepare 6× anti-IgE solution [rabbit anti-human IgE (1 mg/ml, Bethyl Laboratories A80-109A) diluted 1:167 in MT buffer]. Stimulate cells by adding 25 ul of 6× anti-IgE solution to the appropriate plates. Add 25 ul MT to un-stimulated control wells. Mix twice following addition of the anti-IgE. Incubate at 37° C. for 30 minutes. During the 30 minute incubation, dilute the 20 mM tryptase substrate stock solution [(Z-Ala-Lys-Arg-AMC.2TFA; Enzyme Systems Products, #AMC-246)] 1:2000 in tryptase assay buffer [0.1 M Hepes (pH 7.5), 10% w/v Glycerol, 10 uM Heparin (Sigma H-4898) 0.01% NaN3]. Spin plates at 1000 rpm for 10 min to pellet cells. Transfer 25 ul of supernatant to a 96-well black bottom plate and add 100 ul of freshly diluted tryptase substrate solution to each well. Incubate plates at room temperature for 30 min. Read the […] of the plates at 355 nm/460 nm on a spectrophotometric plate reader.
The results of low density CHMC assays for release of tryptase (Section 6.2.2) are provided for examplary quinoline compounds in TABLE 1, supra. In TABLE 1, a value of “+” indicates an IC50 of 20 μM or less; a value of “++” indicates an IC50 of 10 μM or less; and a value of “+++” indicates an IIC50 of 5 μM or less.

The test system of test [2] is passive cutaneous anaphylaxis (PCA) response. The settings on record: i.p., 30 minutes pretreatment time.
Procedure: The in vivo efficacy of the quinoline compounds towards allergies can be evaluated in the mouse model of passive cutaneous anaphylaxis (PCA). This model provides a direct measure of IgE-induced degranulation of tissue mast cells. In this model, IgE primed animals are exposed to an allergen challenge and the change in permeability of dermal vasculature that results from histamine release from mast cells is measured by change in the amount of dye leakage into surrounding tissue. Inhibition of mediator release by compounds that modulate mast cell degranulation is easily measured by extracting the dye from the tissue.
In the PCA assay mice are passively sensitized by intradermal injection with anti-dinitrophenol (DNP) IgE antibodies (Day −1). At predetermined times (5-60 minutes prior to challenge), animals are treated with the test agent (Day 0). The modulatory effect of the agent on cutaneous mast cell degranulation is measured following intravenous injection of DNP conjugated to human serum albumin (HSA-DNP), together with Evans blue dye. The resulting cross-linking of the IgE receptor and subsequent mast cell degranulation-induced increase in vascular permeability is determined by measuring the amount of dye extravasation into the tissue. Dye is extracted from the tissue by formamide, and the absorbance of this extract is read at 620 nm. […]

Where two headings read alike, the source gives them in different places.

A word on the IC50: it is the point on the concentration scale where inhibition reaches its midpoint. A low value points to higher potency. As to `Clc1ccc2nc(Nc3cc(-c4ccccc4)n[nH]3)ccc2c1` [Compound 1, 6-chloro-2-(3-phenyl-1H-pyrazol-5-ylamino)quinoline], the 50% inhibitory concentration (IC50) in test [1] is not above 5 µM.
The same measure, in the same setting: next, `Clc1cccc2ccc(Nc3n[nH]c(-c4ccccc4)c3Br)nc12` [Compound 2, 2-(4-bromo-5-phenyl-1H-pyrazol-3-ylamino)-8-chloroquinoline]: not above 5 µM; `Clc1ccc2nc(Nc3n[nH]c(-c4ccccc4)c3Br)ccc2c1` [Compound 3, 2-(4-bromo-5-phenyl-1H-pyrazol-3-ylamino)-6-chloroquinoline]: not above 5 µM; `NC(=O)c1[nH]cnc1Nc1ccc2cc(Cl)ccc2n1` [Compound 4, 2-(5-aminocarbonyl-1H-imidazol-4-ylamino)-6-chloroquinoline]: not above 5 µM.
Still for that read-out and setting: next, `NC(=O)c1[nH]cnc1Nc1ccc2cccc(Cl)c2n1` [Compound 5, 2-(5-aminocarbonyl-1H-imidazol-4-ylamino)-8-chloroquinoline]: not above 5 µM; `NC(=O)c1c[nH]nc1Nc1ccc2cccc(Cl)c2n1` [Compound 6, 2-(4-aminocarbonyl-1H-pyrazol-3-ylamino)-8-chloroquinoline]: not above 5 µM; `Clc1cccc2ccc(Nc3cc(-c4ccccc4)n[nH]3)nc12` [Compound 7, 8-chloro-2-(3-phenyl-1H-pyrazol-5-ylamino)quinoline]: not above 5 µM.
Same read-out and setting: the same measure for `Clc1cccc2ccc(Nc3cc(-c4cccs4)n[nH]3)nc12` [Compound 8, 8-chloro-2-(3-thiophen-2-yl-1H-pyrazol-5-ylamino)quinoline]: not above 5 µM; for `Clc1ccc2nc(Nc3cc(-c4cccs4)n[nH]3)ccc2c1` [Compound 9, 6-chloro-2-(3-thiophen-2-yl-1H-pyrazol-5-ylamino)quinoline]: not above 5 µM.
For `COc1ccc(-c2cc(Nc3ccc4cccc(Cl)c4n3)n[nH]2)cc1` [Compound 10, 8-chloro-2-[5-(4-methoxyphenyl)-1H-pyrazol-3-ylamino]quinoline], the IC50 in test [1] is not above 5 µM.
The same measure, in the same setting: next, `COc1ccc(-c2cc(Nc3ccc4cc(Cl)ccc4n3)n[nH]2)cc1` [Compound 11, 6-chloro-2-[5-(4-methoxyphenyl)-1H-pyrazol-3-ylamino]quinoline]: not above 5 µM.
On the same count and under the same terms, the same measure for `Cc1cc(Nc2ccc3cccc(Cl)c3n2)n[nH]1` [Compound 12, 8-chloro-2-(5-methyl-1H-pyrazol-3-ylamino)quinoline]: not above 5 µM; for `CC(C)(C)c1cc(Nc2ccc3cccc(Cl)c3n2)n[nH]1` [Compound 13, 2-(5-tert-butyl-1H-pyrazol-3-ylamino)-8-chloroquinoline]: not above 10 µM; for `Cc1cc(Nc2nc[nH]c2C(N)=O)nc2ccccc12` [Compound 15, 2-(5-aminocarbonyl-1H-imidazol-4-ylamino)-4-methylquinoline]: not above 10 µM.
In test [1], `NC(=O)c1c[nH]nc1Nc1ccc2cc(Cl)ccc2n1` [Compound 16, 2-(4-aminocarbonyl-1H-pyrazol-3-ylamino)-6-chloroquinoline] registered an IC50 not above 10 µM.
As for `CCOC(=O)c1c[nH]nc1Nc1ccc2cccc(Cl)c2n1` [Compound 17, 8-chloro-2-(4-ethoxycarbonyl-1H-pyrazol-3-ylamino)quinoline], in test [1], the IC50 was not above 10 µM and the “activity in "prodrug" form” value was “active”.
For `CNC(=O)c1cc(Nc2nc[nH]c2C(N)=O)nc2ccccc12` [Compound 18, 2-(5-aminocarbonyl-1H-imidazol-4-ylamino)-4-methylaminocarbonylquinoline], in that order: not above 10 µM and “active”.
`Clc1cccc2ccc(Nc3cc[nH]n3)nc12` [Compound 19, 8-chloro-2-(1H-pyrazol-3-ylamino)quinoline]: in test [1], the IC50 is not above 20 µM.
Regarding `N#Cc1c[nH]nc1Nc1ccc2cccc(Cl)c2n1` [Compound 20, 8-chloro-2-(4-cyano-1H-pyrazol-3-ylamino)quinoline], in test [1], the IC50 is not above 20 µM.
Consider `Oc1cccc2ccc(Nc3nc[nH]c3Cl)nc12` [Compound 21, 2-(5-chloro-1H-imidazol-4-ylamino)-8-hydroxyquinoline], for which the 50% inhibitory concentration (IC50) in test [1] and in test [1] (stated in text) was more than 20 µM in each case.
With `NC(=O)c1[nH]cnc1Nc1cc(C(=O)N2CCOCC2)c2ccccc2n1` [Compound 22, 2-(5-aminocarbonyl-1H-imidazol-4-ylamino)-4-(4-morpholinocarbonyl)quinoline], the half-maximal inhibitory concentration (IC50) in test [1] and in test [1] (stated in text) was more than 20 µM each time.
For the compound `CN1CCC(=C2c3ccccc3C=Cc3ccccc32)CC1` [Cyproheptadine, cyproheptadine], the “inhibition of the PCA response” value in test [2] (8 mg/kg, n=23 experiments) was determined as 61%+/−4.
As to `CN(C)CCOC(c1ccccc1)c1ccccc1` [diphenhydramine], the “inhibition of the PCA response” value in test [2] (highest dose, 50 mg/kg) is on record as “up to 86%”.
